For the test, the system named is Myc. Briefly: Myc inhibition assay: Myc expression per cell by anti-Myc immunofluorescence, high-content imaging. It counts as cell-based, human (patient-derived medulloblastoma xenograft cells). As to conditions: medulloblastoma PDX cells, 4 h. The procedure, abridged:
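IC50 comes from high-content imaging of per-cell Myc immunostaining (DAPI-labelled nuclei) after 4 h compound exposure. Cells were freshly dissociated medulloblastoma PDX tumours, never passaged in vitro, grown in NSG mouse cerebellum, plated serum-free and recovered overnight before treatment.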

Setting [1] is: Table 1, read-out: IC50 (Myc inhibition).
Setting [2] is: Table 2, read-out: MYC Inhibition IC50.

Read-outs that look alike come from different tables or passages of the source. Some results are limits rather than exact numbers.

Take `Oc1cc(-c2ccnc(Nc3cc(C(F)(F)F)ccn3)n2)ccn1` [Compound 158, 4-(2-((4-(trifluoromethyl)pyridin-2-yl)amino)pyrimidin-4-yl)pyridin-2-ol]: the half-inhibitory concentration (IC50) reads like this: under setting [1], 10000 to 100000 nM; under setting [2], 10000 to 100000 nM.
In the case of `NC(=O)c1cccc(Nc2nccc(-c3ccc4[nH]cnc4c3)n2)c1` [Compound 67, 3-((4-(1H-benzo[d]imidazol-5-yl)pyrimidin-2-yl)amino)benzamide], the half-maximal inhibitory concentration (IC50) is 200 to 1000 nM under setting [1] and 200 to 1000 nM under setting [2].
Turning to `FC(F)(F)Oc1ccccc1Nc1nccc(-c2ccc3[nH]cnc3c2)n1` [Compound 79, 4-(1H-benzo[d]imidazol-5-yl)-N-(2-(trifluoromethoxy)phenyl)pyrimidin-2-amine], the 50% inhibitory concentration (IC50) under setting [1] lay in the range of 200 to 1000 nM and the IC50 under setting [2] was in the range of 200 to 1000 nM.
Consider `FC(F)(F)c1ccccc1Nc1nccc(-c2ccc3[nH]cnc3c2)n1` [Compound 62, 4-(1H-benzo[d]imidazol-5-yl)-N-(2-(trifluoromethyl)phenyl)pyrimidin-2-amine], for which the 50% inhibitory concentration (IC50) under setting [1] is 1000 to 10000 nM and the IC50 under setting [2] was 1000 to 10000 nM.
As for `c1cc(Nc2nccc(-c3ccc4[nH]cnc4c3)n2)cc(-n2cccn2)c1` [Compound 8, N-(3-(1H-pyrazol-1-yl)phenyl)-4-(1H-benzo[d]imidazol-5-yl)pyrimidin-2-amine], the IC50 reads like this: under setting [1], under 200 nM; under setting [2], under 200 nM.
Regarding `c1cc(Nc2nccc(-c3ccc4[nH]cnc4c3)n2)cc(N2CCNCC2)c1` [Compound 92, 4-(1H-benzo[d]imidazol-5-yl)-N-(3-(piperazin-1-yl)phenyl)pyrimidin-2-amine], the IC50 reads like this: under setting [1], 1000 to 10000 nM; under setting [2], 1000 to 10000 nM.
Regarding `COc1cc(-c2ccnc(Nc3ccc(F)c(F)c3)n2)ccn1` [Compound 210, N-(3,4-difluorophenyl)-4-(2-methoxypyridin-4-yl)pyrimidin-2-amine], the IC50 is 1000 to 10000 nM under setting [1] and 1000 to 10000 nM under setting [2].
As for `Oc1ccc(-c2ccnc(Nc3cccc(C(F)(F)F)c3)n2)cn1` [Compound 211, 5-(2-((3-(trifluoromethyl)phenyl)amino)pyrimidin-4-yl)pyridin-2-ol], the IC50 is, setting by setting: under setting [1], 200 to 1000 nM; under setting [2], 200 to 1000 nM.
As to `COc1cc(-c2ccnc(Nc3cccc(C(C)(C)C)c3)n2)ccn1` [Compound 150, N-(3-(tert-butyl)phenyl)-4-(2-methoxypyridin-4-yl)pyrimidin-2-amine], the IC50 reads like this: under setting [1], 1000 to 10000 nM; under setting [2], 1000 to 10000 nM.
For `c1cc(Nc2nccc(-c3ccc4[nH]cnc4c3)n2)cc(-c2ccn[nH]2)c1` [Compound 261, N-(3-(1H-pyrazol-5-yl)phenyl)-4-(1H-benzo[d]imidazol-5-yl)pyrimidin-2-amine], the 50% inhibitory concentration (IC50) runs as follows: under setting [1], under 200 nM; under setting [2], under 200 nM.
As to `CC(C)(C)c1ccc(Nc2nccc(-c3ccc4[nH]cnc4c3)n2)cc1` [Compound 72, 4-(1H-benzo[d]imidazol-5-yl)-N-(4-(tert-butyl)phenyl)pyrimidin-2-amine], the concentration for half-maximal inhibition (IC50) is, setting by setting: under setting [1], 1000 to 10000 nM; under setting [2], 1000 to 10000 nM.
Take `CN(C)S(=O)(=O)c1cccc(Nc2nccc(-c3ccc4[nH]cnc4c3)n2)c1` [Compound 7, 3-((4-(1H-benzo[d]imidazol-5-yl)pyrimidin-2-yl)amino)-N,N-dimethylbenzenesulfonamide]: the 50% inhibitory concentration (IC50) is under 200 nM under setting [1] and under 200 nM under setting [2].
For `COc1cccc(Nc2nccc(-c3cccc(OC)c3)n2)c1` [Compound 250, N,4-bis(3-methoxyphenyl)pyrimidin-2-amine], the IC50 is, setting by setting: under setting [1], 1000 to 10000 nM; under setting [2], 1000 to 10000 nM.
For `COc1cc(-c2ccnc(Nc3cccnc3)n2)ccn1` [Compound 189, 4-(2-methoxypyridin-4-yl)-N-(pyridin-3-yl)pyrimidin-2-amine], the IC50 by setting is: under setting [1], 1000 to 10000 nM; under setting [2], 1000 to 10000 nM.
As to `FC(F)c1cccc(Nc2cc(-c3ccc4[nH]cnc4c3)ccn2)n1` [Compound 278, N-(4-(1H-benzo[d]imidazol-5-yl)pyridin-2-yl)-6-(difluoromethyl)pyridin-2-amine], the IC50 reads like this: under setting [1], under 200 nM; under setting [2], under 200 nM.
For `c1cnc(-n2cc(Nc3nccc(-c4ccc5[nH]cnc5c4)n3)cn2)nc1` [Compound 20, 4-(1H-benzo[d]imidazol-5-yl)-N-(1-(pyrimidin-2-yl)-1H-pyrazol-4-yl)pyrimidin-2-amine], the IC50 runs as follows: under setting [1], 200 to 1000 nM; under setting [2], 200 to 1000 nM.
Take `Cc1cc(C)cc(Nc2nccc(-c3ccc4[nH]cnc4c3)n2)c1` [Compound 16, 4-(1H-benzo[d]imidazol-5-yl)-N-(3,5-dimethylphenyl)pyrimidin-2-amine]: the IC50 reads like this: under setting [1], under 200 nM; under setting [2], under 200 nM.
Turning to `CC(C)S(=O)(=O)c1cccc(Nc2nccc(-c3ccc4[nH]cnc4c3)n2)c1` [Compound 26, 4-(1H-benzo[d]imidazol-5-yl)-N-(3-(isopropylsulfonyl)phenyl)pyrimidin-2-amine], the half-maximal inhibitory concentration (IC50) is under 200 nM under setting [1] and under 200 nM under setting [2].
On to `c1ccc(Nc2nccc(-c3ccc4[nH]cnc4c3)n2)cc1` [Compound 78, 4-(1H-benzo[d]imidazol-5-yl)-N-phenylpyrimidin-2-amine], for which the half-inhibitory concentration (IC50) under setting [1] lay within 1000 to 10000 nM and the IC50 under setting [2] fell in the range of 1000 to 10000 nM.
As for `COc1cccc(-c2cccc(Nc3ccccc3)n2)c1` [Compound 245, 6-(3-Methoxyphenyl)-N-phenylpyridin-2-amine], the concentration for half-maximal inhibition (IC50) runs as follows: under setting [1], 10000 to 100000 nM; under setting [2], 10000 to 100000 nM.
With `COc1cc(-c2ccnc(Nc3cccc(OCCO)c3)n2)ccn1` [Compound 129, 2-(3-((4-(2-methoxypyridin-4-yl)pyrimidin-2-yl)amino)phenoxy)ethan-1-ol], the IC50 runs as follows: under setting [1], 1000 to 10000 nM; under setting [2], 1000 to 10000 nM.
For `FC(F)(F)c1ccc(Nc2nccc(-c3ccc4[nH]cnc4c3)n2)cc1` [Compound 266, 4-(1H-benzo[d]imidazol-5-yl)-N-(4-(trifluoromethyl)phenyl)pyrimidin-2-amine], the IC50 runs as follows: under setting [1], 1000 to 10000 nM; under setting [2], 1000 to 10000 nM.
`Oc1cc(-c2ccnc(Nc3cccc(C(F)(F)F)c3)n2)ncn1` [Compound 131, 2′-((3-(trifluoromethyl)phenyl)amino)-[4,4′-bipyrimidin]-6-ol]: the concentration for half-maximal inhibition (IC50) by setting is: under setting [1], 1000 to 10000 nM; under setting [2], 1000 to 10000 nM.
As for `O=C(c1cccc(Nc2nccc(-c3ccc4[nH]cnc4c3)n2)c1)N1CCCC1` [Compound 17, (3-((4-(1H-benzo[d]imidazol-5-yl)pyrimidin-2-yl)amino)phenyl)(pyrrolidin-1-yl)methanone], the 50% inhibitory concentration (IC50) fell in the range of 10000 to 100000 nM under setting [1] and 10000 to 100000 nM under setting [2].
Consider `Oc1cc(-c2ccnc(Nc3ccnc(C(F)(F)F)c3)n2)ccn1` [Compound 156, 4-(2-((2-(trifluoromethyl)pyridin-4-yl)amino)pyrimidin-4-yl)pyridin-2-ol], for which the IC50 was in the range of 10000 to 100000 nM under setting [1] and 10000 to 100000 nM under setting [2].
As to `Cc1cccc(C)c1-c1cccc(Nc2nccc(-c3ccc4[nH]cnc4c3)n2)c1` [Compound 3, 4-(1H-benzo[d]imidazol-5-yl)-N-(2′,6′-dimethyl-[1,1′-biphenyl]-3-yl)pyrimidin-2-amine], the IC50 under setting [1] is 1000 to 10000 nM and the half-maximal inhibitory concentration (IC50) under setting [2] was 1000 to 10000 nM.
`c1ccc(-c2cccc(Nc3nccc(-c4ccc5[nH]cnc5c4)n3)c2)nc1` [Compound 44, 4-(1H-benzo[d]imidazol-5-yl)-N-(3-(pyridin-2-yl)phenyl)pyrimidin-2-amine]: the 50% inhibitory concentration (IC50) reads like this: under setting [1], under 200 nM; under setting [2], under 200 nM.
Take `c1cc(-c2ccc3[nH]cnc3c2)nc(Nc2ccsc2)n1` [Compound 68, 4-(1H-benzo[d]imidazol-5-yl)-N-(thiophen-3-yl)pyrimidin-2-amine]: the IC50 under setting [1] is 200 to 1000 nM and the half-inhibitory concentration (IC50) under setting [2] was 200 to 1000 nM.
As to `Cn1cnc2cc(-c3ccnc(Nc4cccc(C(F)(F)F)c4)n3)ccc21` [Compound 95, 4-(1-methyl-1H-benzo[d]imidazol-5-yl)-N-(3-(trifluoromethyl)phenyl)pyrimidin-2-amine], the IC50 runs as follows: under setting [1], under 200 nM; under setting [2], under 200 nM.
Consider `CN(c1ccccc1)c1ncnc(-c2ccnc(O)c2)n1` [Compound 215, 4-(4-(methyl(phenyl)amino)-1,3,5-triazin-2-yl)pyridin-2-ol], for which the IC50 runs as follows: under setting [1], 10000 to 100000 nM; under setting [2], 10000 to 100000 nM.
For `Oc1cccc(-c2ccnc(Nc3ccccc3)n2)n1` [Compound 226, 6-(2-(phenylamino)pyrimidin-4-yl)pyridin-2-ol], the 50% inhibitory concentration (IC50) was in the range of 10000 to 100000 nM under setting [1] and 10000 to 100000 nM under setting [2].
For the molecule `CC(C)(C)c1ccccc1Nc1nccc(-c2ccc3[nH]cnc3c2)n1` [Compound 53, 4-(1H-benzo[d]imidazol-5-yl)-N-(2-(tert-butyl)phenyl)pyrimidin-2-amine], the IC50 lay in the range of 1000 to 10000 nM under setting [1] and 1000 to 10000 nM under setting [2].
For the molecule `Oc1cc(-c2ccnc(Nc3cncnc3)n2)ccn1` [Compound 178, 4-(2-(pyrimidin-5-ylamino)pyrimidin-4-yl)pyridin-2-ol], the IC50 is, setting by setting: under setting [1], 10000 to 100000 nM; under setting [2], 10000 to 100000 nM.
`O=C1CNCCN1c1cccc(Nc2nccc(-c3ccc4[nH]cnc4c3)n2)c1` [Compound 63, 1-(3-((4-(1H-benzo[d]imidazol-5-yl)pyrimidin-2-yl)amino)phenyl)piperazin-2-one]: the IC50 reads like this: under setting [1], 1000 to 10000 nM; under setting [2], 1000 to 10000 nM.
With `CNS(=O)(=O)c1cccc(Nc2nccc(-c3ccc4[nH]cnc4c3)n2)c1` [Compound 25, 3-((4-(1H-benzo[d]imidazol-5-yl)pyrimidin-2-yl)amino)-N-methylbenzenesulfonamide], the concentration for half-maximal inhibition (IC50) runs as follows: under setting [1], under 200 nM; under setting [2], under 200 nM.
On to `Fc1cc(-c2ccnc(Nc3cccc(C(F)(F)F)c3)n2)cc2nc[nH]c12` [Compound 115, 4-(7-fluoro-1H-benzo[d]imidazol-5-yl)-N-(3-(trifluoromethyl)phenyl)pyrimidin-2-amine], for which the 50% inhibitory concentration (IC50) under setting [1] is under 200 nM and the IC50 under setting [2] was under 200 nM.
Regarding `CN(c1cccc(F)c1)c1nccc(-c2ccnc(O)c2)n1` [Compound 237, 4-(2-((3-fluorophenyl)(methyl)amino)pyrimidin-4-yl)pyridin-2-ol], the IC50 by setting is: under setting [1], 10000 to 100000 nM; under setting [2], 10000 to 100000 nM.

These data come from patent US20260356817A1, “AMINOPYRIMIDINE AND AMINOTRIAZINE DERIVATIVES AS MYC PROTEIN MODULATORS” (Sanford Burnham Prebys Medical Discovery Institute, priority 2022, published 2026).
